Source: patent US12325697B2 (Nimbus Clio, Inc., priority 2021, dated 2025)
Where two headings read alike, the source gives them in different places.

Key:
[1] = biological target: Recombinant human Cbl-b (aa 36-427) (Homo sapiens (Human), UniProt Q13191); assay: Cbl-b Biochemical Assay (TR-FRET); conditions: read-out: TR-FRET hCbl-b IC50
How it was run: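 IC50 from 4-parameter fit of % inhibition (DMSO max, reference-inhibitor min), duplicate ten-point series. Compound preincubated with 6 nM Cbl-b, then Src-Zap70 (1-2.5 nM)/0.5 mM ATP reaction 60 min RT; EDTA quench with labelled UBE2D2-Ub and streptavidin-terbium, 60 min, HTRF at 520 nm.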

[2] = test system: Phospho-Zap70 (Y-319) in Jurkat wild-type (clone E6-1) cells; assay: Jurkat pZAP70 HTRF Assay; type: cell-based; conditions: Homo sapiens
[3] = test system: Jurkat (clone E6-1) cells, NFAT luciferase reporter; assay: Jurkat Reporter Assay (NFAT Luciferase); type: cell-based; conditions: Homo sapiens
[4] = anti-CD3 5 μg/ml, 3 hr, read-out: ZAP70 Jurkat EC50
[5] = anti-CD3 stimulation, 6 hr, read-out: Jurkat NFAT EC50

Sequence of Recombinant human Cbl-b (aa 36-427) (Q13191 36-427): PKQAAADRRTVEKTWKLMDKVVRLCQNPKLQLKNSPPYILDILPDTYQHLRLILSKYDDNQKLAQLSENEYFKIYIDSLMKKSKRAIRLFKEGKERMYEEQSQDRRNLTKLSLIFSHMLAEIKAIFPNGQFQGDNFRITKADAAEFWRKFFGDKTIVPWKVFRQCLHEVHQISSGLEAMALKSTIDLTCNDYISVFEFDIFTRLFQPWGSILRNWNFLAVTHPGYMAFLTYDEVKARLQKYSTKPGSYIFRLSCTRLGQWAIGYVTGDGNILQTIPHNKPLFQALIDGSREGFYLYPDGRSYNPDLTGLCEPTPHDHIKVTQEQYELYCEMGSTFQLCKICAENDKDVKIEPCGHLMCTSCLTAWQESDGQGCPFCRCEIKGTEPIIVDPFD

| Structure (SMILES) | IC50 [1] [nM] | EC50 [2, 4] [µM] | EC50 [3, 5] [µM] | EC50 ([2]; 3 h, read-out: ZAP70 Jurkat EC50 (μM)) [µM] | EC50 ([3]; 6 h, read-out: Jurkat NFAT EC50 (μM)) [µM] |
| --- | --- | --- | --- | --- | --- |
| Cn1cnnc1-c1ccccc1-c1cc(C2CC2)nc(N2Cc3c(cc(CNCC4(O)CCC4)cc3C(F)(F)F)C2=O)c1 [ADZ-2, 2-{6-Cyclopropyl-4-[2-(4-methyl-1,2,4-triazol-3-yl)phenyl]pyridin-2-yl}-6-({[(1-hydroxycyclobutyl)methyl]amino}methyl)-4-(trifluoromethyl)-3H-isoindol-1-one] | ≤ 200 | < 0.2 | < 0.2 | – | – |
| CC(C)c1cc(-c2ccc(F)cc2-c2nncn2C)cc(N2Cc3ccc(CNCC4(O)CCC4)cc3C2=O)n1 [AFX-1, 2-{4-[4-Fluoro-2-(4-methyl-1,2,4-triazol-3-yl)phenyl]-6-isopropylpyridin-2-yl}-6-({[(1-hydroxycyclobutyl)methyl]amino}methyl)-3H-isoindol-1-one] | ≤ 200 | < 0.2 | < 0.2 | – | – |
| CN1CC[C@@H](COCc2cc3c(c(C(F)(F)F)c2)CN(c2cc(-c4ccc(F)cc4-c4nncn4C)cc(C4CC4)n2)C3=O)C1 [AHI-4, 2-{6-Cyclopropyl-4-[4-fluoro-2-(4-methyl-1,2,4-triazol-3-yl)phenyl]pyridin-2-yl}-6-({[(3R)-1-methylpyrrolidin-3-yl]methoxy}methyl)-4-(trifluoromethyl)-3H-isoindol-1-one] | ≤ 200 | 0.2 to 1 | < 0.2 | – | – |
| CCNc1cc(-c2ccc(C#N)cc2-c2nncn2C)cc(N2Cc3c(cc([C@H](O)CN(C)C)cc3C(F)(F)F)C2=O)n1 (single isomer, unassigned) [AGL-1] | ≤ 200 | 0.2 to 1 | < 0.2 | – | – |
| Cn1cnnc1-c1cc(C#N)ccc1-c1cc(C2CC2)nc(N2Cc3c(cc(C4(O)CCC4)cc3C(F)(F)F)C2=O)c1 [AGM-5, 4-{2-Cyclopropyl-6-[6-(1-hydroxycyclobutyl)-1-oxo-4-(trifluoromethyl)-3H-isoindol-2-yl]pyridin-4-yl}-3-(4-methyl-1,2,4-triazol-3-yl)benzonitrile] | ≤ 200 | 0.2 to 1 | < 0.2 | – | – |
| CCNc1cc(-c2c(-c3nncn3C)cnn2C)cc(N2Cc3c(cc(CN(C)CC4(O)CCC4)cc3C(F)(F)F)C2=O)n1 [AEJ-3, 2-(6-(Ethylamino)-4-(1-methyl-4-(4-methyl-4H-1,2,4-triazol-3-yl)-1H-pyrazol-5-yl)pyridin-2-yl)-6-((((1-hydroxycyclobutyl)methyl)(methyl)amino)methyl)-4-(trifluoromethyl)isoindolin-1-one] | ≤ 200 | < 0.2 | < 0.2 | – | – |
| CCNc1cc(-c2ccc(C#N)cc2-c2nncn2C)cc(N2Cc3c(cc(COCC4(N)CCC4)cc3C(F)(F)F)C2=O)n1 [AGJ-2, 4-[2-(6-{[(1-aminocyclobutyl)methoxy]methyl}-1-oxo-4-(trifluoromethyl)-3H-isoindol-2-yl)-6-(ethylamino)pyridin-4-yl]-3-(4-methyl-1,2,4-triazol-3-yl)benzonitrile] | ≤ 200 | 1 to 10 | < 0.2 | – | – |
| CCNc1cc(-c2ccc(C#N)cc2-c2nncn2C)cc(N2Cc3c(cc(CN4CCC[C@@H](C)C4)cc3C(F)(F)F)C2=O)n1 [ADU-2, 4-[2-(Ethylamino)-6-(6-{[(3R)-3-methylpiperidin-1-yl]methyl}-1-oxo-4-(trifluoromethyl)-3H-isoindol-2-yl)pyridin-4-yl]-3-(4-methyl-1,2,4-triazol-3-yl) benzonitrile] | ≤ 200 | – | – | 0.2 to 1 | < 0.2 |
| CCNc1cc(-c2ccc(C#N)cc2-c2nncn2C)cc(N2Cc3c(cc(OC)cc3C(F)(F)F)C2=O)n1 [AEU-8, 4-[2-(Ethylamino)-6-[6-methoxy-1-oxo-4-(trifluoromethyl)-3H-isoindol-2-yl]pyridin-4-yl]-3-(4-methyl-1,2,4-triazol-3-yl)benzonitrile] | ≤ 200 | 0.2 to 1 | < 0.2 | – | – |
